Consider 18 compounds from patent US11485742B2, “2-azaspiro[3.4]octane derivatives as M4 agonists” (NOVARTIS AG, priority 2019, dated 2022).

Test [1] deals with T1, Cloned human M1 receptor (CHRM1) (Homo sapiens, UniProt P11229).
T1 construct: expressed in transfected cells; host or cells: HEK293
T1 sequence (P11229 1-460): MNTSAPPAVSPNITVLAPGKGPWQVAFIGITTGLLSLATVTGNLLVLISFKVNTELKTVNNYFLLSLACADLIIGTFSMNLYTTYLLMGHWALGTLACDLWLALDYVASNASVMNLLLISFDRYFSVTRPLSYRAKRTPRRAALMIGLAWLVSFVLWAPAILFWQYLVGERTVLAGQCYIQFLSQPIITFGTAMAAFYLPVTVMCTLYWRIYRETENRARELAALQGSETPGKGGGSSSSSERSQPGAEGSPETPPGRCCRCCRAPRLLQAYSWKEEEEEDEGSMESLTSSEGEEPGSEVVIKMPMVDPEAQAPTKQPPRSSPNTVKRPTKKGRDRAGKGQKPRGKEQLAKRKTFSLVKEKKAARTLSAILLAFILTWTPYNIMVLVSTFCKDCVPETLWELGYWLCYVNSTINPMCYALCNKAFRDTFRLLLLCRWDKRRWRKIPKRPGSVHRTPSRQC
Description: CHRM1 Ca++ Flux Assay (HEK293 M1 cells, agonist mode). Particulars: for Emax: read-out: M1 FDSS PA %; for EC50: geometric mean if tested more than once, read-out: M1 FDSS EC50. Type of test: cell-based. The method in brief: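 HEK293 cells stably expressing human M1 were loaded with Ca++ dye, then given compounds (11-point dose, triplicate) in HBSS −Ca/−Mg, 20 mM HEPES. Ca++ flux was read over 3 min (agonist mode). Four-parameter curves were fitted, with activity as percent of carbachol EC100.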

The target of test [2] is T2, human cloned CHRM5 receptor (Homo sapiens, UniProt P08912).
T2 construct: expressed in transfected cells; host or cells: CHO (M5_CHO)
T2 sequence (P08912 1-532): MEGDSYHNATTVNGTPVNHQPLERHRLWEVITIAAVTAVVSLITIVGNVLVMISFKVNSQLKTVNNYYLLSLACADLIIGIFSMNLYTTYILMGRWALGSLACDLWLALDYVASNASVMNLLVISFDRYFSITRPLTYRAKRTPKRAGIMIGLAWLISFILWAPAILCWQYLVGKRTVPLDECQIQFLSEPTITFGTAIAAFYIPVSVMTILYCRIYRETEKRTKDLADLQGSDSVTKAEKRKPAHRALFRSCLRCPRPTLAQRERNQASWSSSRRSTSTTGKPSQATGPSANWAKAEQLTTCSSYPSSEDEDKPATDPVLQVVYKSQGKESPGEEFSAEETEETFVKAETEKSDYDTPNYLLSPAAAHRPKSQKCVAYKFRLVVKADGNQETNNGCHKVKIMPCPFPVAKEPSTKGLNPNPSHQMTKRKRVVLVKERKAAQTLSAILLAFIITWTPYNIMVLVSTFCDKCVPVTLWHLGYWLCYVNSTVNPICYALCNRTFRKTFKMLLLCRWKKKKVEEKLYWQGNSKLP
Kind of test: CHRM5 Ca++ Flux Assay (M5_CHO cells, agonist mode). Type of test: cell-based. Conditions: for Emax: read-out: M5 FDSS PA %; for EC50: agonist mode, geometric mean if tested more than once, read-out: M5 FDSS EC50. In outline:
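CHO-K1 cells stably expressing human M3 or M5 receptor, dye-loaded ≥1 h, treated with 11-point compound doses in triplicate; Ca++ flux read over 3 min (FDSS). Agonist-mode four-parameter fit; percent activity relative to carbachol EC100; repeat tests reported as geometric mean.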

[3] abbreviates: Percent Activity (PA) measured to EC100 of Carbachol.

Counter-ions that a name gives are not always drawn.

Turning to `COc1cc(F)ccc1C1CCN([C@@H]2COC3(C2)CN(c2ncns2)C3)CC1` [Example 5E, (S)-7-(4-(4-fluoro-2-methoxyphenyl)piperidin-1-yl)-2-(1,2,4-thiadiazol-5-yl)-5-oxa-2-azaspiro[3.4]octane], the Emax turned out to be 29% in test [1] (Percent Activity (PA)) and 0% in test [2] (setting [3]). Further, the figures for the EC50 in test [1] and in test [2] were 2580 nM and 13000 nM, respectively.
Take `c1ccc(C2CCN([C@@H]3COC4(C3)CN(c3ncco3)C4)CC2)c(OC2COC2)c1` [Example 4C, (S)-2-(oxazol-2-yl)-7-(4-(2-(oxetan-3-yloxy)phenyl)piperidin-1-yl)-5-oxa-2-azaspiro[3.4]octane]: the Emax in test [1] (Percent Activity (PA)) was 79%; in test [2] (setting [3]), 0%. Moreover, the EC50 is 382 nM in test [1] and more than 25000 nM in test [2].
Regarding `COc1ccccc1C1CCN([C@@H]2COC3(C2)CN(c2nncs2)C3)CC1` [Example 5R, (S)-7-(4-(2-methoxyphenyl)piperidin-1-yl)-2-(1,3,4-thiadiazol-2-yl)-5-oxa-2-azaspiro[3.4]octane], the figures for the Emax in test [1] (Percent Activity (PA)) and in test [2] (setting [3]) were 52% and 0%, respectively. Besides, the EC50 in test [1] is 904 nM; in test [2], more than 25000 nM.
The corresponding values for `Fc1ccc(O[C@@H]2CCOC2)c(C2CCN([C@@H]3COC4(C3)CN(c3nnco3)C4)CC2)c1` [Example 1D, (S)-7-(4-(5-fluoro-2-(((R)-tetrahydrofuran-3-yl)oxy)phenyl)piperidin-1-yl)-2-(1,3,4-oxadiazol-2-yl)-5-oxa-2-azaspiro[3.4]octane] are 69%, 0%, 609 nM and more than 25000 nM.
As to `Fc1cc(OC2COC2)c(C2CCN([C@@H]3COC4(C3)CN(c3nnco3)C4)CC2)cc1F` [Example 2FF, (S)-7-(4-(4,5-difluoro-2-(oxetan-3-yloxy)phenyl)piperidin-1-yl)-2-(1,3,4-oxadiazol-2-yl)-5-oxa-2-azaspiro[3.4]octane], the Emax turned out to be 70% in test [1] (Percent Activity (PA)) and 0% in test [2] (setting [3]). In addition, the half-maximal effective concentration (EC50) was 264 nM in test [1] and more than 25000 nM in test [2].
Turning to `c1ccc(C2CCN([C@@H]3COC4(C3)CN(c3nncs3)C4)CC2)c(OC2COC2)c1` [Example 5Q, (S)-7-(4-(2-(oxetan-3-yloxy)phenyl)piperidin-1-yl)-2-(1,3,4-thiadiazol-2-yl)-5-oxa-2-azaspiro[3.4]octane formate salt], the figures for the Emax in test [1] (Percent Activity (PA)) and in test [2] (setting [3]) were 86% and 0%, respectively. In addition, the EC50 was 864 nM in test [1] and more than 25000 nM in test [2].
Take `COc1cc(F)ccc1C1CCN([C@@H]2COC3(C2)CN(c2nncs2)C3)CC1` [Example 5T, (S)-7-(4-(4-fluoro-2-methoxyphenyl)piperidin-1-yl)-2-(1,3,4-thiadiazol-2-yl)-5-oxa-2-azaspiro[3.4]octane]: the results for the Emax in test [1] (Percent Activity (PA)) and in test [2] (setting [3]) were 57% and 0%, respectively. In addition, the EC50 is 1790 nM in test [1] and more than 25000 nM in test [2].
With `COC(C)(C)CCOc1ccc(F)cc1C1CCN([C@@H]2COC3(C2)CN(c2nncs2)C3)CC1` [Example 5N, (S)-7-(4-(5-fluoro-2-(3-methoxy-3-methylbutoxy)phenyl)piperidin-1-yl)-2-(1,3,4-thiadiazol-2-yl)-5-oxa-2-azaspiro[3.4]octane], the figures for the Emax in test [1] (Percent Activity (PA)) and in test [2] (setting [3]) were 68% and 21%, respectively. Also, the EC50 was 2970 nM in test [1] and 12400 nM in test [2].
`Fc1ccc(OC2COC2)c(C2CCN([C@@H]3COC4(C3)CN(c3nncs3)C4)CC2)c1` [Example 5G, (S)-7-(4-(5-fluoro-2-(oxetan-3-yloxy)phenyl)piperidin-1-yl)-2-(1,3,4-thiadiazol-2-yl)-5-oxa-2-azaspiro[3.4]octane]: the Emax in test [1] (Percent Activity (PA)) was 88%; in test [2] (setting [3]) it was 0%. The results for the EC50 in test [1] and in test [2] were 311 nM and more than 25000 nM, respectively.
For the compound `Fc1cc(OC2COC2)c(C2CCN([C@@H]3COC4(C3)CN(c3ncco3)C4)CC2)cc1F` [Example 4Q, (S)-7-(4-(4,5-difluoro-2-(oxetan-3-yloxy)phenyl)piperidin-1-yl)-2-(oxazol-2-yl)-5-oxa-2-azaspiro[3.4]octane], the Emax in test [1] (Percent Activity (PA)) turned out to be 71%; in test [2] (setting [3]), 0%. The figures for the EC50 in test [1] and in test [2] were 294 nM and more than 25000 nM, respectively.
Taken in the same sequence, the figures for `COc1ccccc1C1CCN([C@@H]2COC3(C2)CN(c2ncns2)C3)CC1` [Example 5B, (S)-7-(4-(2-methoxyphenyl)piperidin-1-yl)-2-(1,2,4-thiadiazol-5-yl)-5-oxa-2-azaspiro[3.4]octane] were 22%, 0%, 1570 nM and more than 25000 nM.
With `CC(C)(O)COc1ccc(F)cc1C1CCN([C@@H]2COC3(C2)CN(c2ncns2)C3)CC1` [Example 5C, (S)-1-(2-(1-(2-(1,2,4-thiadiazol-5-yl)-5-oxa-2-azaspiro[3.4]octan-7-yl)piperidin-4-yl)-4-fluorophenoxy)-2-methylpropan-2-ol], the Emax in test [1] (Percent Activity (PA)) amounted to 60%; in test [2] (setting [3]), 4%. Besides, the concentration for a half-maximal effect (EC50) in test [1] is 1600 nM; in test [2] it was more than 25000 nM.
Turning to `c1ccc([C@@H]2CCOC2)c(C2CCN([C@@H]3COC4(C3)CN(c3nnco3)C4)CC2)c1` (single isomer, unassigned) [Example 3B, (S)-2-(1,3,4-oxadiazol-2-yl)-7-(4-(2-((S)-tetrahydrofuran-3-yl)phenyl)piperidin-1-yl)-5-oxa-2-azaspiro[3.4]octane or (S)-2-(1,3,4-oxadiazol-2-yl)-7-(4-(2-((R)-tetrahydrofuran-3-yl)phenyl)piperidin-1-yl)-5-oxa-2-azaspiro[3.4]octane], the “M1 FDSS PA %” value in test [1] (Percent Activity (PA)) was found to be 82%. For the same compound, the figures for the 50% effective concentration (EC50) in test [1] and in test [2] were 1120 nM and more than 25000 nM, respectively. Further, the “M5 FDSS PA %” value in test [2] (setting [3]) came to 0%.
With `c1ccc(C2CCN([C@@H]3COC4(C3)CN(c3nnco3)C4)CC2)c(CC2CCOCC2)c1` [Example 3G, (S)-2-(1,3,4-oxadiazol-2-yl)-7-(4-(2-((tetrahydro-2H-pyran-4-yl)methyl)phenyl)piperidin-1-yl)-5-oxa-2-azaspiro[3.4]octane], the Emax in test [1] (Percent Activity (PA)) is 44%; in test [2] (setting [3]), 0%. Also, the EC50 in test [1] was 7240 nM; in test [2], more than 25000 nM.
With `COc1ccc(F)cc1C1CCN([C@@H]2COC3(C2)CN(c2ncco2)C3)CC1` [Example 4I, (S)-7-(4-(5-fluoro-2-methoxyphenyl)piperidin-1-yl)-2-(oxazol-2-yl)-5-oxa-2-azaspiro[3.4]octane], the Emax in test [1] (Percent Activity (PA)) turned out to be 82%; in test [2] (setting [3]), 0%. Also, the EC50 in test [1] is 227 nM; in test [2], more than 25000 nM.
For `c1ccc(C2CCN([C@@H]3COC4(C3)CN(c3ncco3)C4)CC2)c(C2CCOCC2)c1` [Example 4V, (S)-2-(oxazol-2-yl)-7-(4-(2-(tetrahydro-2H-pyran-4-yl)phenyl)piperidin-1-yl)-5-oxa-2-azaspiro[3.4]octane], the Emax in test [1] (Percent Activity (PA)) was determined as 72%; in test [2] (setting [3]) it was 0%. Also, the values for the EC50 in test [1] and in test [2] were 1990 nM and more than 25000 nM, respectively.
On to `c1ccc(C2CCN([C@@H]3COC4(C3)CN(c3ncco3)C4)CC2)c(OC2CC3(COC3)C2)c1` [Example 4M, (S)-7-(4-(2-((2-oxaspiro[3.3]heptan-6-yl)oxy)phenyl)piperidin-1-yl)-2-(oxazol-2-yl)-5-oxa-2-azaspiro[3.4]octane], for which the Emax in test [1] (Percent Activity (PA)) amounted to 49%; in test [2] (setting [3]), 0%. Besides, the figures for the concentration for a half-maximal effect (EC50) in test [1] and in test [2] were 2810 nM and more than 25000 nM, respectively.
The corresponding values for `Fc1ccc(C2CCOCC2)c(C2CCN([C@@H]3COC4(C3)CN(c3nnco3)C4)CC2)c1` [Example 3D, (S)-7-(4-(5-fluoro-2-(tetrahydro-2H-pyran-4-yl)phenyl)piperidin-1-yl)-2-(1,3,4-oxadiazol-2-yl)-5-oxa-2-azaspiro[3.4]octane] are 75%, 0%, 1410 nM and more than 25000 nM.

In general, EC50 refers to the concentration that produces a half-maximal response.
